Results from PubChem BioAssay (NCI).
Where “and” joins values, the source holds several entries; their conditions need not be identical. Identical values can stand only once.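 A five-concentration, 48-hour dose response in 96-well plates underlies each endpoint, interpolated linearly between surrounding concentrations. GI50 is the concentration that inhibits growth by half. At the TGI there is no net growth.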

Legend:
Assay in all cases: inhibition of tumour cell growth, NCI panel, 48 h
MCF7 breast = tested on: MCF7 breast
SR leukemia = tested on: SR leukemia
T-47D breast = tested on: T-47D breast
UACC-62 melanoma = tested on: UACC-62 melanoma
SK-OV-3 ovarian = tested on: SK-OV-3 ovarian
OVCAR-8 ovarian = tested on: OVCAR-8 ovarian
UACC-257 melanoma = tested on: UACC-257 melanoma
SF-539 CNS = tested on: SF-539 CNS
MDA-MB-435 = tested on: MDA-MB-435
SK-MEL-28 melanoma = tested on: SK-MEL-28 melanoma

SMILES | TGI (MCF7 breast) | TGI (SR leukemia) | TGI (T-47D breast) | TGI (UACC-62 melanoma) | TGI (SK-OV-3 ovarian) | TGI (OVCAR-8 ovarian) | TGI (UACC-257 melanoma) | TGI (SF-539 CNS) | TGI (MDA-MB-435) | TGI (SK-MEL-28 melanoma) | GI50 (SR leukemia) | GI50 (SK-OV-3 ovarian) | GI50 (MCF7 breast) | GI50 (MDA-MB-435) | GI50 (T-47D breast) | GI50 (UACC-62 melanoma) | GI50 (UACC-257 melanoma) | GI50 (SF-539 CNS)
CC(=O)Oc1ccc2c3c1O[C@H]1[C@H](O)CC[C@@]4(O)[C@@H](C2)N(C)CC[C@]314 | > 100 µM | > 100 µM | > 100 µM | > 100 µM | > 100 µM | > 100 µM | > 100 µM | > 100 µM | > 100 µM | > 100 µM |  |  |  |  |  |  |  | 
CNC1(C(=O)O)CC1 | > 100 µM | > 100 µM | > 100 µM | > 100 µM |  | > 100 µM | > 100 µM | > 100 µM | > 100 µM | > 100 µM |  |  |  |  |  |  |  | 
CC1C(C#N)(C#N)C(C#N)=C(N)C1(Cl)[N+](=O)[O-] (centres undefined) | 47.4 µM | 26.5 µM | 42.7 µM | 24 µM | 32.6 µM | 28.7 µM | 24.5 µM | 25.2 µM | 31.6 µM |  |  |  |  |  |  |  |  | 
COc1cc(C2c3cc4c(cc3[C@@H](NCCN3CCOCC3)C3COC(=O)[C@H]23)OCO4)cc(OC)c1O (some centres undefined) |  | 11.1 µM and 1.3 µM |  | 4.99 µM and 6.06 µM | 5.89 µM and 11.3 µM | 11.9 µM | 32.9 µM and > 17.5 µM | 2.53 µM and 3.58 µM |  | 16.6 µM and > 17.5 µM | 0.0227 µM and 0.0625 µM | 1.49 µM and 3.36 µM |  |  |  |  |  | 
O=C(OCCNC(=O)N1CC1)OCCNC(=O)N1CC1 | > 10 µM | > 10 µM | > 10 µM | > 10 µM | > 10 µM | > 10 µM | > 10 µM | > 10 µM | > 10 µM | > 10 µM |  |  |  |  |  |  |  | 
COc1cccc(/C=C2\S/C(=N/Nc3nc(-c4ccc([N+](=O)[O-])cc4)cs3)NC2=O)c1O | 38.2 µM | 74.9 µM | 27.5 µM |  | 79.8 µM | 48.3 µM | 71.2 µM | 22 µM | 42.2 µM | 39.5 µM |  |  |  |  |  |  |  | 
CSc1nc2c(c(=O)[nH]1)N=C(c1ccccc1)CC(c1ccccc1)N2 (centres undefined) | 36 µM | > 100 µM |  | 57.1 µM | 89.7 µM | > 100 µM | > 100 µM | 66.3 µM | > 100 µM | > 100 µM |  |  |  |  |  |  |  | 
c1ccc(CSC2(SCc3ccccc3)CCCCC2)cc1 | > 10 µM | > 10 µM | > 10 µM | > 10 µM | > 10 µM | > 10 µM | > 10 µM | > 10 µM |  | > 10 µM |  |  |  |  |  |  |  | 
COc1ccc(/C=C2\C[C@H]3[C@@H]4CCC5=CC(=O)CC[C@]5(C)[C@H]4CC[C@]3(C)C2=O)cc1OC | > 100 µM | 7.4 µM | > 100 µM | > 100 µM | > 100 µM | > 100 µM | 68.4 µM | > 100 µM | > 100 µM | > 100 µM |  |  |  |  |  |  |  | 
CCOC(=O)c1c(NC(=S)Nc2ccccc2)sc2c1CCOC2 | > 100 µM | > 100 µM | > 100 µM | > 100 µM | > 100 µM | > 100 µM | > 100 µM | > 100 µM | > 100 µM | > 100 µM |  |  |  |  |  |  |  | 
CCOC(=O)c1cccc(NC(=O)CI)c1 | 1.33 µM | 0.0918 µM |  | 1.87 µM | 2.26 µM | 0.687 µM | 2.95 µM | 1.31 µM | 0.797 µM | 5.86 µM |  |  |  |  |  |  |  | 
Cc1ccc(C(=O)N/N=C(\N=Nc2ccc(C(=O)O)cc2)c2ccc(N(CCC#N)CCC#N)cc2C)cc1 | > 100 µM | > 100 µM | > 100 µM |  | > 100 µM | > 100 µM | > 100 µM | > 100 µM | > 100 µM | > 100 µM |  |  |  |  |  |  |  | 
COc1cc(OC)c2[nH]c3c(O)c(-c4c(C)cc5c([nH]c6c(OC)cc(OC)cc65)c4O)c(C)cc3c2c1 | 18.9 µM | 20 µM | 17.7 µM |  |  | 15.3 µM | 19 µM | 16.8 µM | 24.9 µM | 19.5 µM | 9.01 µM |  | 8.68 µM | 12 µM |  |  |  | 
CCCCCCCCC/C=C1\CCC(CN(C)C)C1=O (centres undefined) |  | 6.77 µM |  | 5.73 µM | 32 µM | 3.11 µM | 3.52 µM | 3.18 µM |  | 4.28 µM |  |  |  |  |  |  |  | 
CCOc1cc2c(c(OCC)c1O)CC[C@@H]1[C@@H]2CC[C@]2(C)[C@@H](O)CC[C@@H]12 | 53.2 µM | 28 µM | 54.3 µM | 27.5 µM | 57.5 µM | > 100 µM |  | 6.71 µM | 3.05 µM |  |  |  |  |  |  |  |  | 
Cc1ccc2c(/C=C/c3ccc(N(C)C)cc3)ccc(C(C)C)cc1-2 | > 100 µM | > 100 µM | > 100 µM | > 100 µM | > 100 µM | > 100 µM | > 100 µM |  | > 100 µM | > 100 µM |  |  |  |  |  |  |  | 
OC1CSc2nc3ccccc3n2C1 (centres undefined) | > 100 µM | > 100 µM | > 100 µM | > 100 µM | > 100 µM | > 100 µM | > 100 µM | > 100 µM | > 100 µM |  |  |  |  |  |  |  |  | 

SMILES | TGI (MCF7 breast) | TGI (SR leukemia) | TGI (T-47D breast) | TGI (UACC-62 melanoma) | TGI (SK-OV-3 ovarian) | TGI (OVCAR-8 ovarian) | TGI (UACC-257 melanoma) | TGI (SF-539 CNS) | TGI (MDA-MB-435) | TGI (SK-MEL-28 melanoma) | GI50 (SR leukemia) | GI50 (SK-OV-3 ovarian) | GI50 (MCF7 breast) | GI50 (MDA-MB-435) | GI50 (T-47D breast) | GI50 (UACC-62 melanoma) | GI50 (UACC-257 melanoma) | GI50 (SF-539 CNS)
c1ccc([I+]c2ccccc2)cc1 | > 100 µM | > 100 µM | > 100 µM |  | > 100 µM | > 100 µM | > 100 µM | > 100 µM | > 100 µM | > 100 µM |  |  |  |  |  |  |  | 
Cc1ccc(Nc2nc3c(=O)n(C)c(=O)n(C)c3nc2Nc2ccc(C)cc2)cc1 |  | > 100 µM | 30.3 µM | 25 µM | > 100 µM | 26.8 µM | 30.5 µM | 26.7 µM | 25.1 µM | 30.8 µM |  |  |  |  |  |  |  | 
CCOC(=O)/C=C(/C)Nc1nc2c(c(C(=O)OC)c1C#N)CCCC2 | > 100 µM | > 100 µM | > 100 µM | > 100 µM | > 100 µM | > 100 µM | > 100 µM |  | > 100 µM | > 100 µM |  |  |  |  |  |  |  | 
CCOC1CC(C)N(C(=O)c2ccccc2)O1 (centres undefined) | > 100 µM | > 100 µM | > 100 µM | > 100 µM | > 100 µM | > 100 µM |  | > 100 µM | > 100 µM | > 100 µM |  |  |  |  |  |  |  | 
N#Cc1c(O)c(/C=N/c2ncccn2)c(=O)n2c1[nH]c1ccccc12 | > 100 µM | > 100 µM | > 100 µM |  | > 100 µM | > 100 µM | > 100 µM | > 100 µM | > 100 µM | > 100 µM |  |  |  |  |  |  |  | 
COc1ccccc1C1c2cc3c(cc2OC(N2CCOCC2)C1C)OCO3 (centres undefined) | 81.5 µM | 52.9 µM | 78.3 µM | 35.5 µM |  | > 100 µM | 36.9 µM | 32 µM | 24.9 µM | 32.6 µM |  |  |  |  |  |  |  | 
Cc1ccc(N(C)S(=O)(=O)c2ccccc2[N+](=O)[O-])cc1 | > 100 µM | > 100 µM | > 100 µM |  |  | > 100 µM | > 100 µM | > 100 µM | > 100 µM | > 100 µM |  |  |  |  |  |  |  | 
O=C(NNC(=O)c1csc(NC(=S)NC2CCCCC2)n1)c1ccccc1 | > 100 µM | > 100 µM | 17.3 µM | 23.9 µM | 34.2 µM | 59.2 µM | 27.8 µM | 31.6 µM | 33.1 µM |  |  |  |  |  |  |  |  | 
COc1cc2c(c(OC)c1OC)-c1ccc(SC)cc1C(O)CC2 (centres undefined) | > 100 µM and 36.1 µg/mL | 34.7 µg/mL | > 100 µM | 20.4 µM |  |  | 32.8 µg/mL |  | 17 µg/mL | > 100 µM |  |  |  |  |  |  |  | 
COc1ccc2nc3cccc([N+](=O)[O-])c3c(NCCCO)c2c1 | 0.0134 µM and 0.0389 µM |  |  | 0.0151 µM and 0.0185 µM | 0.184 µM and 0.563 µM | 0.0132 µM | 0.0166 µM | 0.00518 µM and 0.0418 µM | 0.0017 µM and 0.0128 µM |  | 0.0288 µM | 0.0375 µM and 0.0452 µM |  |  | 0.0292 µM and 0.136 µM | 0.00294 µM | 0.00379 µM | 0.00141 µM and 0.0132 µM
COc1ccc(-c2oc3c(OC)c(OC)cc(O)c3c(=O)c2OC)cc1 | > 100 µM |  | > 100 µM | > 100 µM | > 100 µM | > 100 µM | > 100 µM | 72.5 µM | > 100 µM | > 100 µM |  |  |  |  |  |  |  | 
CC[C@@]1(O)C(=O)OCc2c1cc1n(c2=O)Cc2c-1nc1ccccc1c2/C=N/NC(=O)c1ccc(N)cc1 | > 100 µM |  | 0.389 µM | 1.94 µM | > 100 µM | > 100 µM | > 100 µM | 0.019 µM | > 100 µM | > 100 µM |  |  |  |  |  |  |  | 
Cc1ccc(N/C(SCc2ccccc2)=C(\C(Cl)=C(Cl)Cl)[N+](=O)[O-])c(C)c1 | > 100 µM |  | 69.3 µM | > 100 µM | > 100 µM | 32.7 µM | > 100 µM | 46.1 µM | 26.1 µM | 71.6 µM |  |  |  |  |  |  |  | 
CN1CC2CN(Cc3ccccc3)CCN2c2cccnc21 (centres undefined) | > 100 µM | > 100 µM | > 100 µM | > 100 µM | > 100 µM | > 100 µM | > 100 µM | > 100 µM | > 100 µM |  |  |  |  |  |  |  |  | 
CC1=C(C(=O)N[C@@H](CC(C)C)C(=O)O)N2C(=O)[C@@H](NC(=O)C(N)c3ccccc3)[C@H]2SC1 (some centres undefined) | > 100 µM | > 100 µM | > 100 µM | > 100 µM |  | > 100 µM | > 100 µM | > 100 µM | > 100 µM | > 100 µM |  |  |  |  |  |  |  | 
Nc1nc(-c2ccco2)cc(-c2ccc(CO)o2)n1 |  | > 100 µM |  | > 100 µM |  | > 100 µM |  | > 100 µM |  | > 100 µM |  |  |  |  |  |  |  | 
N#CNC(=NCCc1c[nH]c2ccccc12)Oc1ccccc1 |  | > 100 µM |  | > 100 µM | > 100 µM | > 100 µM | > 100 µM | > 100 µM |  | > 100 µM |  |  |  |  |  |  |  | 
